# Assay results taken from US8435929B2, “1-aminocyclopropane carboxylic acid as a fruit thinner” (Valent BioSciences Corporation, priority 2009, dated 2013).
# What was measured:
# Babygold #5 peach [1] = experiment: Field thinning study, fruit set of Babygold #5 peach; assay type: in vivo
# Procedure: A series of field studies on stone fruit thinning were performed over several seasons, on different varieties and in various locations to determine the consistency of the thinning effect of ACC. Even without the application of a chemical thinning agent, crop load (number of fruit remaining divided by the number of flowers or fruit prior to application) was variable. Chemical thinning of stone fruit is variable and dependent on many factors including variety and environment. An acceptable chemical thinning agent is one that gives a substantial and relatively consistent reduction in crop load for a given dose over a wide range of trials.
# The effect of ACC rate and timing was determined. ACC was sprayed on Babygold #5 peach trees at bloom (Table 1) or shuck split (early fruitlet stage) (Table 2).
# Rose Diamond nectarines = experiment: Field thinning study, fruit set of Rose Diamond nectarines; assay type: in vivo, nectarine; settings: application at late shuck fall
# PF-27 peaches = experiment: Field thinning study, ACC and ABA, fruit set of PF-27 peaches; assay type: in vivo, peach; settings: application at shuck split
# Text: Application of ACC alone at shuck split reduced fruit set in a dose dependent manner (Table 10).
# O'Henry peaches = experiment: Field thinning study, fruit set, fruit weight and crop safety of O'Henry peaches
# Babygold #5 peach [2] = experiment: Field thinning study, fruit set of Babygold #5 peach; assay type: in vivo; remark: listed apart in the source
# Summer Rich peaches = experiment: Field thinning study, fruit set, fruit weight and crop safety of Summer Rich peaches
# [3] = 100 ppm, application at shuck split, 0.05% Regulaid adjuvant
# [4] = 300 ppm, application at shuck split, 0.05% Regulaid adjuvant
# [5] = 1000 ppm, application at shuck split, 0.05% Regulaid adjuvant
# [6] = 500 ppm, application at petal fall, trial of Table 4
# [7] = 500 ppm, application at petal fall, trial of Table 5 (other location)
# [8] = 750 ppm, application at petal fall, trial of Table 4
# [9] = 750 ppm, application at petal fall, trial of Table 5 (other location)
compound,measurement,setting,value
"NC1(C(=O)O)CC1 [ACC, 1-aminocyclopropane carboxylic acid]",Crop load (percent) of treated trees compared to the water control,"Babygold #5 peach [1]; 100 ppm, application at bloom",90%
same,Crop load (percent) of treated trees compared to the water control,Babygold #5 peach [1]; [3],102%
same,Crop load (percent) of treated trees compared to the water control,"Babygold #5 peach [1]; 300 ppm, application at bloom",77%
same,Percent fruit set,"Babygold #5 peach [1]; 300 ppm, application at bloom",57%
same,Percent fruit set,Babygold #5 peach [1]; [4],61%
same,Crop load (percent) of treated trees compared to the water control,"Babygold #5 peach [1]; 1000 ppm, application at bloom",40%
same,Percent fruit set,"Babygold #5 peach [1]; 1000 ppm, application at bloom",30%
same,Percent fruit set,Babygold #5 peach [1]; [5],11%
same,Crop load (percent) of treated trees compared to the untreated control,Rose Diamond nectarines; 125 ppm,88%
same,Percent fruit set,Rose Diamond nectarines; 125 ppm,60%
same,Crop load (percent) of treated trees compared to the untreated control,Rose Diamond nectarines; 250 ppm,90%
same,Percent fruit set,Rose Diamond nectarines; 250 ppm,61%
same,Crop load (percent) of treated trees compared to the untreated control,Rose Diamond nectarines; 500 ppm,65%
same,Percent fruit set,Rose Diamond nectarines; 500 ppm,44%
same,Crop load (percent) of treated trees compared to the untreated control,Rose Diamond nectarines; 1000 ppm,24%
same,Percent fruit set,Rose Diamond nectarines; 1000 ppm,16%
same,Crop load (percent) of treated trees compared to the untreated control,PF-27 peaches; 100 ppm,81%
same,Percent fruit set,PF-27 peaches; 100 ppm,70%
same,Crop load (percent) of treated trees compared to the untreated control,PF-27 peaches; 300 ppm,67%
same,Percent fruit set,PF-27 peaches; 300 ppm,58%
same,Crop load (percent) of treated trees compared to the untreated control,PF-27 peaches; 1000 ppm,15%
same,Percent fruit set,PF-27 peaches; 1000 ppm,13%
same,Crop load (percent) of treated trees compared to the untreated control,O'Henry peaches; 500 ppm at 15 mm fruit stage,38%
same,Crop safety on vegetation (0-4 scale),O'Henry peaches; 500 ppm at 15 mm fruit stage,0.7 0-4 scale
same,Fruit weight at maturity,O'Henry peaches; 500 ppm at 15 mm fruit stage,185 g
same,Percent fruit set,O'Henry peaches; 500 ppm at 15 mm fruit stage,16%
same,Crop load (percent) of treated trees compared to the untreated control,O'Henry peaches; 500 ppm at petal fall,79%
same,Crop safety on vegetation (0-4 scale),O'Henry peaches; 500 ppm at petal fall,0 0-4 scale
same,Fruit weight at maturity,O'Henry peaches; 500 ppm at petal fall,200 g
same,Percent fruit set,O'Henry peaches; 500 ppm at petal fall,23%
same,Crop load (percent) of treated trees compared to the untreated control,O'Henry peaches; 750 ppm at 15 mm fruit stage,21%
same,Crop safety on vegetation (0-4 scale),O'Henry peaches; 750 ppm at 15 mm fruit stage,2.1 0-4 scale
same,Fruit weight at maturity,O'Henry peaches; 750 ppm at 15 mm fruit stage,235 g
same,Percent fruit set,O'Henry peaches; 750 ppm at 15 mm fruit stage,6%
same,Crop load (percent) of treated trees compared to the untreated control,O'Henry peaches; 750 ppm at petal fall,55%
same,Crop safety on vegetation (0-4 scale),O'Henry peaches; 750 ppm at petal fall,0.5 0-4 scale
same,Fruit weight at maturity,O'Henry peaches; 750 ppm at petal fall,205 g
same,Percent fruit set,O'Henry peaches; 750 ppm at petal fall,11%
same,Percent fruit set,"Babygold #5 peach [2]; 100 ppm, application at bloom",67%
same,Percent fruit set,Babygold #5 peach [2]; [3],85%
same,Crop load (percent) of treated trees compared to the water control,Babygold #5 peach [2]; [4],72%
same,Percent Fruit Set,"Babygold #5 peach [2]; 500 ppm, 10 mm fruitlet timing",6.7%
same,Crop load (percent) of treated trees compared to the untreated control,Babygold #5 peach [2]; [6],67%
same,Percent fruit set,Babygold #5 peach [2]; [6],32%
same,Crop load (percent) of treated trees compared to the untreated control,Babygold #5 peach [2]; [7],98%
same,Percent fruit set,Babygold #5 peach [2]; [7],42%
same,Crop load (percent) of treated trees compared to the untreated control,Babygold #5 peach [2]; [8],50%
same,Percent fruit set,Babygold #5 peach [2]; [8],24%
same,Crop load (percent) of treated trees compared to the untreated control,Babygold #5 peach [2]; [9],72%
same,Percent fruit set,Babygold #5 peach [2]; [9],31%
same,Crop load (percent) of treated trees compared to the water control,Babygold #5 peach [2]; [5],14%
same,Crop load (percent) of treated trees compared to the untreated control,Summer Rich peaches; 500 ppm at 15 mm fruit stage,34%
same,Crop safety on vegetation (0-4 scale),Summer Rich peaches; 500 ppm at 15 mm fruit stage,3.0 0-4 scale
same,Fruit weight at maturity,Summer Rich peaches; 500 ppm at 15 mm fruit stage,144 g
same,Percent fruit set,Summer Rich peaches; 500 ppm at 15 mm fruit stage,24%
same,Crop load (percent) of treated trees compared to the untreated control,Summer Rich peaches; 500 ppm at petal fall,55%
same,Crop safety on vegetation (0-4 scale),Summer Rich peaches; 500 ppm at petal fall,0.5 0-4 scale
same,Fruit weight at maturity,Summer Rich peaches; 500 ppm at petal fall,140 g
same,Percent fruit set,Summer Rich peaches; 500 ppm at petal fall,39%
same,Crop load (percent) of treated trees compared to the untreated control,Summer Rich peaches; 750 ppm at 15 mm fruit stage,24%
same,Crop safety on vegetation (0-4 scale),Summer Rich peaches; 750 ppm at 15 mm fruit stage,3.5 0-4 scale
same,Fruit weight at maturity,Summer Rich peaches; 750 ppm at 15 mm fruit stage,169 g
same,Percent fruit set,Summer Rich peaches; 750 ppm at 15 mm fruit stage,17%
same,Crop load (percent) of treated trees compared to the untreated control,Summer Rich peaches; 750 ppm at petal fall,39%
same,Crop safety on vegetation (0-4 scale),Summer Rich peaches; 750 ppm at petal fall,0.8 0-4 scale
same,Fruit weight at maturity,Summer Rich peaches; 750 ppm at petal fall,151 g
same,Percent fruit set,Summer Rich peaches; 750 ppm at petal fall,28%
same,Leaf yellowing and leaf loss,"Summer Rich peaches; application at petal fall, stated for both varieties (Summer Rich and O'Henry)",minimized leaf yellowing and leaf loss
